system: Hepatitis C replicon in Huh-7 cells; assay: HCV replicon replication assay (NPT ELISA); type: cell-based; settings: Hepatitis C virus, Huh-7, 72 h
Description: Compounds claimed herein are tested for the ability to inhibit viral replication of the Hepatitis C replicon in cultured cells in which the HCV replicon construct has been incorporated. The HCV replicon system was described by Bartenschlager, et. al (Science, 285, pp. 110-113 (1999)). The replicon system is predictive of in vivo anti-HCV activity; compounds that are active in humans uniformly evidence activity in the replicon assay.
In this assay HCV replicon containing cells are treated with different concentrations of the test compound to ascertain the ability of the test compound to suppress replication of the HCV replicon. As a positive control, HCV replicon-containing cells are treated with different concentrations of interferon alpha, a known inhibitor of HCV replication. The replicon assay system includes Neomycin Phosphotransferase (NPT) as a component of the replicon itself in order to detect the transcription of replicon gene products in the host cell. Cells in which the HCV replicon is actively replicating have high levels of NPT; the level of NPT is proportional to HCV replication. […] The NPT level of each sample is measured using a captured ELISA.
A protocol for testing compounds for the ability to inhibit viral replication of the Hepatitis C replicon cultured cells in which the replicon construct has been incorporated, follows.
The HCV replicon contains, 5′-3′, the HCV-IRES, the neomycin phosphotransferase (neo) gene, the IRES of encephalomyocarditis virus, which directs translation of HCV sequences NS3 to NS5B, and the 3′-NTR. The sequence of the HCV replicon has been deposited in GenBank (Accession no. AJ242652).
The replicon is transfected into Huh-7 cells using standard methods such as electroporation.
The cells are then seeded onto 96-well plates at a density of 6000-7500 cells/100 microliters/well (6-7.5×10^5 cells/10 ml/plate). The plates are then incubated at 37° C. in a 5% CO2 incubator.
HCV replicon-containing cells are rinsed with once PBS once; 2 mls of trypsin are then added. Cells are incubated at 37° C. in a 5% CO2 incubator for 3-5 minutes. 10 mls of complete medium is added to stop the reaction. Cells are blown gently, put into a 15 ml tube, and spun at 1200 rpm for four minutes. The trypsin/medium solution is removed and 5 mls of medium (500 ml DMEM (high glucose)) from BRL catalog #12430-054; 50 mls 10% FBS, 5% Geneticin G418 (50 mg/ml, BRL catalog #10131-035), 5 ml MEM non-essential amino acids (100×BRL #11140-050) and 5 ml pen-strep (BRL #15140-148) is added. The cells and media are mixed carefully
Cells are plated with screening medium (500 ml DMEM (BRL #21063-029), 50 ml FBS (BRL #10082-147) and 5 ml MEM non-essential amino acid (BRL #11140-050) at 6000-7500 fcells/100 μl/well of 96 well plate (6-7.5×10^5 cells/10 ml/plate). Plates are placed into 37° C. 5% CO2 incubator overnight.
The following morning, drugs (test compounds or interferon alpha) are diluted in 96 well U bottom plates with media or DMSO/media, depending on the final concentration chosen for screening. Generally for 6 concentrations of each test compounds ranging from 10 micromolar to 0.03 micromolar are applied. 100 μl of the test compound dilution is placed in wells of the 96 well plate containing the HCV replicon cells. Media without drug is added to some wells as a negative controls. DMSO is known to affect cell growth. Therefore, if drugs diluted in DMSO are used, all wells, including negative control (media only) and positive control (interferon alpha) wells, must contain the same concentration of DMSO, for single dose screening. The plates are incubated at 37° C. in a humidified 5% CO2 environment for three days.
On day four, the NTPII assay is quantitated. The medium is poured from the plates and the plates are washed once in 200 μl of PBS. The PBS is then decanted and the plates tapped in a paper towel to remove any remaining PBS. […]

| SMILES | EC50 [µM] |
| --- | --- |
| C=CC1CC1(NC(=O)[C@@H]1C[C@@H](Oc2cc(-c3ccccc3)nc3cc(OC)ccc23)CN1C(=O)[C@@H](CC(=O)N1CCCC1)C(C)(C)C)C(=O)O (stereo partly drawn) [Compound 38, 1-((2S,4R)-1-((S)-2-tert-butyl-4-oxo-4-(pyrrolidin-1-yl)butanoyl)-4-(7-methoxy-2-phenylquinolin-4-yloxy)pyrrolidine-2-carboxamido)-2-vinylcyclopropanecarboxylic acid] | > 10 |
| C=CC1CC1(NC(=O)[C@@H]1C[C@@H](Oc2cc(-c3ccccc3)nc3cc(OC)ccc23)CN1C(=O)[C@@H](CC(=O)N1CCCC1)C(C)(C)C)C(=O)OCC (stereo partly drawn) [Compound 39, ethyl 1-((2S,4R)-1-((S)-2-tert-butyl-4-oxo-4-(pyrrolidin-1-yl)butanoyl)-4-(7-methoxy-2-phenylquinolin-4-yloxy)pyrrolidine-2-carboxamido)-2-vinylcyclopropanecarboxylate] | > 10 |
| C=CC1CC1(NC(=O)[C@@H]1C[C@@H](Oc2cc(-c3ccccc3)nc3cc(OC)ccc23)CN1C(=O)[C@@H](CC(=O)N1CCCCC1)C(C)(C)C)C(=O)OCC (stereo partly drawn) [Compound 40, ethyl 1-((2S,4R)-1-((S)-2-tert-butyl-4-oxo-4-(piperidin-1-yl)butanoyl)-4-(7-methoxy-2-phenylquinolin-4-yloxy)pyrrolidine-2-carboxamido)-2-vinylcyclopropanecarboxylate] | > 10 |
| C=CC1CC1(NC(=O)[C@@H]1C[C@@H](Oc2cc(-c3ccccc3)nc3cc(OC)ccc23)CN1C(=O)[C@@H](CC(=O)N1CCCCC1)C(C)(C)C)C(=O)O (stereo partly drawn) [Compound 41, 1-((2S,4R)-1-((S)-2-tert-butyl-4-oxo-4-(piperidin-1-yl)butanoyl)-4-(7-methoxy-2-phenylquinolin-4-yloxy)pyrrolidine-2-carboxamido)-2-vinylcyclopropanecarboxylic acid] | 1 to 10 |
| C=CC1CC1(NC(=O)[C@@H]1C[C@@H](Oc2cc(-c3ccccc3)nc3cc(OC)ccc23)CN1C(=O)[C@@H](CC(=O)N1CCC(O)C1)C(C)(C)C)C(=O)O (stereo partly drawn) [Compound 42, 1-((2S,4R)-1-((2S)-2-tert-butyl-4-(3-hydroxypyrrolidin-1-yl)-4-oxobutanoyl)-4-(7-methoxy-2-phenylquinolin-4-yloxy)pyrrolidine-2-carboxamido)-2-vinylcyclopropanecarboxylic acid] | > 10 |
| C=CC1CC1(NC(=O)[C@@H]1C[C@@H](Oc2cc(-c3ccccc3)nc3cc(OC)ccc23)CN1C(=O)[C@@H](CC(=O)N1CCN(C)CC1)C(C)(C)C)C(=O)O (stereo partly drawn) [Compound 43, 1-((2S,4R)-1-((S)-2-tert-butyl-4-(4-methylpiperazin-1-yl)-4-oxobutanoyl)-4-(7-methoxy-2-phenylquinolin-4-yloxy)pyrrolidine-2-carboxamido)-2-vinylcyclopropanecarboxylic acid] | > 10 |
| C=CC1CC1(NC(=O)[C@@H]1C[C@@H](Oc2cc(-c3ccccc3)nc3cc(OC)ccc23)CN1C(=O)[C@@H](CC(=O)N1CCCCC1C(N)=O)C(C)(C)C)C(=O)O (stereo partly drawn) [Compound 44, 1-((2S,4R)-1-((2S)-2-tert-butyl-4-(2-carbamoylpiperidin-1-yl)-4-oxobutanoyl)-4-(7-methoxy-2-phenylquinolin-4-yloxy)pyrrolidine-2-carboxamido)-2-vinylcyclopropanecarboxylic acid] | > 10 |
| C=CC1CC1(NC(=O)[C@@H]1C[C@@H](Oc2cc(-c3ccccc3)nc3cc(OC)ccc23)CN1C(=O)[C@@H](CC(=O)N1CCCCC1C(N)=O)C(C)(C)C)C(=O)OCC (stereo partly drawn) [Compound 45, ethyl 1-((2S,4R)-1-((2S)-2-tert-butyl-4-(2-carbamoylpiperidin-1-yl)-4-oxobutanoyl)-4-(7-methoxy-2-phenylquinolin-4-yloxy)pyrrolidine-2-carboxamido)-2-vinylcyclopropanecarboxylate] | 1 to 10 |
| C=CC1CC1(NC(=O)[C@@H]1C[C@@H](Oc2cc(-c3ccccc3)nc3cc(OC)ccc23)CN1C(=O)[C@@H](CC(=O)N1CCC(CNC(=O)OC(C)(C)C)CC1)C(C)(C)C)C(=O)O (stereo partly drawn) [Compound 46, 1-((2S,4R)-1-((S)-4-(4-((tert-butoxycarbonylamino)methyl)piperidin-1-yl)-2-tert-butyl-4-oxobutanoyl)-4-(7-methoxy-2-phenylquinolin-4-yloxy)pyrrolidine-2-carboxamido)-2-vinylcyclopropanecarboxylic acid] | > 10 |
| C=CC1CC1(NC(=O)[C@@H]1C[C@@H](Oc2cc(-c3ccccc3)nc3cc(OC)ccc23)CN1C(=O)[C@@H](CC(=O)N1CCCCC1)C(C)(C)C)C(=O)NS(=O)(=O)C1CC1 (stereo partly drawn) [Compound 49, (2S,4R)-1-((S)-2-tert-butyl-4-oxo-4-(piperidin-1-yl)butanoyl)-N-(1-(cyclopropylsulfonylcarbamoyl)-2-vinylcyclopropyl)-4-(7-methoxy-2-phenylquinolin-4-yloxy)pyrrolidine-2-carboxamide] | < 0.1 |
| C=CC1CC1(NC(=O)[C@@H]1C[C@@H](Oc2cc(-c3ccccc3)nc3cc(OC)ccc23)CN1C(=O)[C@@H](CC(=O)N1CCc2ccccc2C1)C(C)(C)C)C(=O)OCC (stereo partly drawn) [Compound 51, ethyl 1-((2S,4R)-1-((S)-2-tert-butyl-4-(3,4-dihydroisoquinolin-2(1H)-yl)-4-oxobutanoyl)-4-(7-methoxy-2-phenylquinolin-4-yloxy)pyrrolidine-2-carboxamido)-2-vinylcyclopropanecarboxylate] | > 10 |
| COc1cc(O[C@@H]2C[C@H]3C(=O)N[C@]4(C(=O)O)C[C@H]4/C=C\CCCCC[C@H](CC(=O)N4CCCCC4)C(=O)N3C2)c2ccc(-c3ccccc3)nc2c1 [Compound 52, (2R,6R,13aS,14aR,16aS,Z)-2-(7-methoxy-2-phenylquinolin-4-yloxy)-5,16-dioxo-6-(2-oxo-2-(piperidin-1-yl)ethyl)-1,2,3,5,6,7,8,9,10,11,13a,14,14a,15,16,16a-hexahydrocyclopropa[e]pyrrolo[1,2-a] [1,4]diazacyclopentadecine-14a-carboxylic acid] | > 10 |
| C=CC1CC1(NC(=O)[C@@H]1C[C@@H](Oc2cc(-c3ccccc3)nc3cc(OC)ccc23)CN1C(=O)[C@@H](CC(=O)N1CCCc2ccccc21)C(C)(C)C)C(=O)O (stereo partly drawn) [Compound 56, 1-((2S,4R)-1-((S)-2-tert-butyl-4-(3,4-dihydroquinolin-1(2H)-yl)-4-oxobutanoyl)-4-(7-methoxy-2-phenylquinolin-4-yloxy)pyrrolidine-2-carboxamido)-2-vinylcyclopropanecarboxylic acid] | 1 to 10 |
| C=CC1CC1(NC(=O)[C@@H]1C[C@@H](Oc2cc(-c3ccccc3)nc3cc(OC)ccc23)CN1C(=O)[C@@H](CC(=O)N1CCc2ccccc2C1)C(C)(C)C)C(=O)O (stereo partly drawn) [Compound 57, 1-((2S,4R)-1-((S)-2-tert-butyl-4-(3,4-dihydroisoquinolin-2(1H)-yl)-4-oxobutanoyl)-4-(7-methoxy-2-phenylquinolin-4-yloxy)pyrrolidine-2-carboxamido)-2-vinylcyclopropanecarboxylic acid] | > 10 |
| COc1ccc2c(O[C@@H]3C[C@H]4C(=O)N[C@]5(C(=O)NS(=O)(=O)C6CC6)C[C@H]5/C=C\CCCCC[C@H](CC(=O)N5CCCCC5)C(=O)N4C3)cc(-c3ccccc3)nc2c1 [Compound 58, (2R,6R,13aS,14aR,16aS,Z)-N-(cyclopropylsulfonyl)-2-(7-methoxy-2-phenylquinolin-4-yloxy)-5,16-dioxo-6-(2-oxo-2-(piperidin-1-yl)ethyl)-1,2,3,5,6,7,8,9,10,11,13a,14,14a,15,16,16a-hexadecahydrocyclopropa[e]pyrrolo[1,2-a] [1,4]diazacyclopentadecine-14a-carboxamide] | < 0.1 |

Reference: patent US9233136B2, “4-amino-4-oxobutanoyl peptides as inhibitors of viral replication” (Achillion Pharmaceuticals, Inc., priority 2006, dated 2016)
